PubChem BioAssay AID602235 (The Scripps Research Institute Molecular Screening Center, 2012)
Active and inactive are the calls of the source. How the calls were made is not given here.

Molecular target: Nuclear receptor coactivator 1 (Homo sapiens) (UniProt Q15788)
Assay: inhibition of NCOA1 transcriptional coactivation in cells – cell-based, luciferase reporter, luminescence, dose response (AID 602235);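 further: cells transfected with pGL4.31 reporter plus pBIND-SRC1 vector; potency is for inhibitors that lower SRC1 reporter luminescence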
Conditions: cell-based SRC1 luciferase reporter

Nuclear receptor coactivator 1 (Homo sapiens), sequence (Q15788 whole entry, looked up): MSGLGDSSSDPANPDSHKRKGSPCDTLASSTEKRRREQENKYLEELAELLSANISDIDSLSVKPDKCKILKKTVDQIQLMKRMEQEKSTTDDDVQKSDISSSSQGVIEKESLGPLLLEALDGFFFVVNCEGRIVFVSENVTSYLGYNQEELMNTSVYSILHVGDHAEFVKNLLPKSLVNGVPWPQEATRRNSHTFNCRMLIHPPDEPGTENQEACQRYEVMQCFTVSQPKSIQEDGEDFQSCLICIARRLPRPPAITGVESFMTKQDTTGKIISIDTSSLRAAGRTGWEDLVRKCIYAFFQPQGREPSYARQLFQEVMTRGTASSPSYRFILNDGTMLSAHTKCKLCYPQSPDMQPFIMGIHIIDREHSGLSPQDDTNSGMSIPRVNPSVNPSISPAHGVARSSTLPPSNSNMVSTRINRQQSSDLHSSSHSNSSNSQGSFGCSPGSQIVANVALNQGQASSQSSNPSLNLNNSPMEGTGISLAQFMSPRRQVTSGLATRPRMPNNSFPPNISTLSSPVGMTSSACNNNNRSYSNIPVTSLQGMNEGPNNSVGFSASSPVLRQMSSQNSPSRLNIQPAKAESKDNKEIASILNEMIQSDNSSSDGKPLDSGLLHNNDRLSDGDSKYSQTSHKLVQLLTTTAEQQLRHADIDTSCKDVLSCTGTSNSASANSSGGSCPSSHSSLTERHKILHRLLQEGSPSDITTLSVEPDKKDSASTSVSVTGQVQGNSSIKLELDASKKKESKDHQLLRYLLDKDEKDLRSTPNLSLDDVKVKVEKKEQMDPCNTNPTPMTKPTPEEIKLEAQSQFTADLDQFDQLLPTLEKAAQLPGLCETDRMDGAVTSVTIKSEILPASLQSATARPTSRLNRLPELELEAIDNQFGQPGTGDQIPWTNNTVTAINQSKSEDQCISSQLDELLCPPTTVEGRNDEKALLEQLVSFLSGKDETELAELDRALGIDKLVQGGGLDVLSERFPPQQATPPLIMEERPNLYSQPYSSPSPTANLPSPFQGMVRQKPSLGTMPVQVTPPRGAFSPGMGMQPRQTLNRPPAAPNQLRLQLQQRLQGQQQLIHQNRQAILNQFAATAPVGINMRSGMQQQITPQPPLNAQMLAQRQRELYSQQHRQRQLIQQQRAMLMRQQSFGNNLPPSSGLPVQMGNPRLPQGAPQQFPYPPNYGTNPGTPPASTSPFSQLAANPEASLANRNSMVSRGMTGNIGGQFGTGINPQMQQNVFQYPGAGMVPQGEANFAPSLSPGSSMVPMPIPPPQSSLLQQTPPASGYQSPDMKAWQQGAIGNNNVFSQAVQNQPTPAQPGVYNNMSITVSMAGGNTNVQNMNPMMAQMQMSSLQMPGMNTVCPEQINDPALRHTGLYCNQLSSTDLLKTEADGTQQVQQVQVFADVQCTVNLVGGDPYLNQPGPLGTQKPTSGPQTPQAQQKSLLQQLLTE

Row | IC50 | Compound
1 | > 35.9 µM (inactive) | COC(=O)N(NC(=O)C(O)(CCC(C)C)CCC(C)C)c1ccccc1
2 | inactive | COc1cccc(/C=N/NC(=O)CNC(=O)C2COc3ccccc3O2)c1O (centres undefined)
3 | > 35.9 µM (inactive) | CCOC(=O)CSc1cc(-c2ccccc2)nc2ncnn12
4 | > 35.9 µM (inactive) | CC(=O)c1cccc(NC(=O)COc2cc3oc(=O)c(CC(C)O)c(C)c3cc2Cl)c1 (centres undefined)
5 | 7.13 µM | CCOC(=O)c1cccc2c1-c1ccccc1/C2=N/O
6 | > 12 µM (inactive) | CCN(c1ccccc1)S(=O)(=O)c1cc(C(=O)Nc2ccc(Br)cc2)ccc1F
7 | > 35.9 µM (inactive) | CN(Cc1cnc2nc(N)nc(N)c2n1)c1ccc(C(=O)N[C@@H](CCC(=O)O)C(=O)O)cc1

Continued, molecule first:

Row | Compound | IC50
8 | CCCCCOc1ccc(/C=C/c2c([N+](=O)[O-])c(=O)n(C)c(=O)n2C)cc1 | 9.08 µM
9 | COc1cc(C(=O)NC(=S)NNC(=O)c2cnccn2)cc(OC)c1OC | inactive
10 | CCCCC(=O)OCC(=O)C1(O)Cc2c(O)c3c(c(O)c2C(OC2CC(NC(=O)C(F)(F)F)C(O)C(C)O2)C1)C(=O)c1c(OC)cccc1C3=O (centres undefined) | > 35.9 µM (inactive)
11 | Cc1cccn2c(=O)c3cc(C(=O)NCCN4CCOCC4)c(=N)n(Cc4cccnc4)c3nc12 | inactive
12 | CC(=O)NC(c1cc(Cl)c2cccnc2c1O)C1CC1 (centres undefined) | inactive
13 | COc1ccc(-n2cnc3c(sc4nccc(N(C)C)c43)c2=O)cc1 | inactive
14 | COc1ccc(C(O)(C(C)C)C(CN2CCOCC2)c2ccc(Cl)cc2)cc1 (centres undefined) | inactive
